Experimental data from patent publication US11859208B2, “Methods of treating cancer using cell based therapies” (Emory University, priority 2016, dated 2024).
“Also recorded” adds a separate entry of the source.

Experiments:
[1] = cited from earlier work
E.G7-OVA cells = test: OVA-expressing lymphoma model: adoptive transfer of T cells expanded with the compounds; format: in vivo, mouse; settings: OT-I, OT-II and B6 T cells expanded 3 days with compound, injected intravenously on day 7 of tumor growth
Method: Mice were injected subcutaneously with 5×10^5 E.G7-OVA cells which were allowed to grow for 7 days until a palpable tumor formed. During this period, OT-I, OT-II, and B6 T cells were expanded with CD3/CD28 beads in the presence of IL-2 and the indicated compounds for 3 days. On day 7 of tumor growth, mice were injected intravenously with a combination of expanded OT-I, OT-II, and B6 T cells (2×10^6 OT-I, 1×10^6 OT-II, and 2×10^6 B6 cells) or 2×10^6 B6 T cells as a control. Mice were then monitored for tumor growth which was calculated as (L×W2)/2.

[2] = system: Bcl-2 in lymphoma patient T cells; test: Bcl-2 expression in patient T cell expansion cultures (SDS-PAGE, membrane probing); format: cell-based, human; settings: lysates on days 7 and 14, actin loading control
Method: Protein lysates from patient T cell expansion cultures were prepared on days 7 and 14. Samples were run on an SDS-PAGE gel prior to transfer to a nitrocellulose membrane. The membrane was then probed for the pro-survival Bcl-2 protein, stripped, and then re-probed for actin as a loading control.

[3] = system: senescent T cells from a patient with lymphoma; test: 10 day in vitro expansion of senescent lymphoma patient T cells with anti-CD3/CD28 beads, flow cytometric analysis; format: cell-based, human; settings: for fraction of senescent T cells that lacked both CD27 and CD28: control 55.2%; for numbers of effector memory T cells (Tem): 10-day cultures; for in vitro expansion of senescent T cells: anti CD3/CD28 beads, single agents or in combination
Method: Monocytes were depleted from the T cell sample, as monocytes are known to inhibit T cell expansion in cultures containing anti-CD3/CD28 beads. The effect of a range of idelalisib concentrations were compared alone and in combination with 3 uM VIP peptide antagonist (VIPhyb) or 1 ug/ml mast cell chymase, an enzyme that degrades endogenous VIP on T cell activation, differentiation and proliferation. Numbers of viable T cells were measured during a 10 day in vitro cultures as well as the T cell differentiation and activation profiles, focusing on the relative numbers of T cells with a senescent phenotype in which co-stimulatory receptors CD27 and CD28 are both absent (CD27− CD28−), to an activated phenotype, in which either CD27, CD28, or both co-stimulatory receptors are present (CD27+CD28+).
Aliquots of frozen patient apheresis products or PBMC from ficolled whole blood were rapidly thawed and rested overnight in complete RPMI 1640 supplemented with 10% fetal bovine serum, 100 U/mL penicillin, 100 μg/mL streptomycin, and 50 μM 2-mercaptoethanol (complete media). The following day, red blood cells were removed from apheresis products by ficoll gradient. The leukocytes were then enriched for T cells using an EasySep human T cell enrichment kit according to manufacturer's instructions. Cells were plated in 200 μL of complete media in each well of a 96 well flat-bottom plate. Compounds were added at the indicated concentrations, and the DMSO concentration was normalized to 0.1% for all wells. Anti-CD3/CD28 beads were added at a 1:1 bead:cell ratio. On day 7 post-stimulation, cells from each treatment were transferred to new media. Fresh compounds and beads were then added, and the cells were cultured for an additional 3 days. On day 10 post-initial stimulation, the beads were removed, and the cells were stained for flow cytometric analysis.
Cells were washed twice in PBS. The cells were also stained using a fixable viability dye. Surface markers were then stained by adding fluorochrome-conjugated antibodies to CD3, CD4, CD8, CD27, CD28, CD45RA, CD45RO, PD-1, and CCR7. To assess proliferation, half the cells were evaluated for expression of Ki67. Ki67 staining was performed using a FoxP3 intracellular staining kit. Just prior to running samples, Accucheck counting beads were added to each tube. Samples were acquired on a BD FACS Aria, and analysis was performed using FlowJo software. Viable cells were used in the analysis. The absolute numbers of cells was calculated for each population according to instructions provided by the manufacturer of the Accucheck counting beads.

DLBCL patient T cells = test: DLBCL patient T cell expansion for 14 days with CD3/CD28 beads and IL-2; format: cell-based, human
[4] = cited from earlier work; remark: listed apart in the source
[5] = system: luciferase B6 splenic T cells; test: One-way mixed lymphocyte reaction (MLR), T-cell proliferation stimulated by alloantigen; format: cell-based, mouse; settings: for T-cell proliferation in MLR: luciferase B6 splenic T cells, 3 days with irradiated FVB splenocytes, daily addition, 0-10 mmol/L
Method: Proliferation of luciferase B6 splenic T cells cultured for 3 days in MLR with irradiated FVB splenocytes, with daily addition of VIP and/or VIPhyb to achieve the concentrations shown (0-10 mmol/L).
To explore the role of VIP signaling in allo-immune responses, one-way mixed lymphocyte reactions (MLR) were performed containing VIP and/or the antagonistic VIPhyb peptide.

[6] = system: T-cells from the patient with relapsed lymphoma; test: Sorted T cells of a relapsed lymphoma patient cultured with anti-CD3/anti-CD28 beads (Ki67, PD-1 flow cytometry); format: cell-based, human; settings: for T-cell proliferation in subsets lacking CD27 or CD28: sorted subsets, anti-CD3/CD28 beads
Text: Using high-speed cell sorting subsets of T-cells were isolated defined by their levels of CD27 and CD28 expression from the patient with relapsed lymphoma and a healthy control. CD3 positive T-cells with each of the four phenotypes defined by CD27 and CD28 expression were sorted and cultured in vitro in the presence of anti-CD3/anti-CD28 beads. While total T-cells from healthy donors had 100% expression of the Ki67 proliferation marker following four days of culture, the corresponding total T-cell population from the patient with anergic T-cells following treatment for lymphoma had only 90% of T-cells expressing the Ki67 marker.
Following the daily addition of 3 uM VIPhyb to these cultures, the proportion of Ki67 positive T-cells from the anergic lymphoma patient was increased to 100%. […] In contrast, the T-cell subsets lacking expression of either CD27 or CD28 or both markers had impaired proliferated response when incubated with the anti-CD3/CD28 beads.

[7] = inclusion during T cell activation

Row | Molecule | therapeutic efficacy of expanded mouse T cells (tumor growth) (E.G7-OVA cells) | expression of Bcl-2 [2] | numbers of effector memory T cells (Tem) [3] | in vitro expansion of senescent T cells [3] | frequency of CD27+CD28+ cells (DLBCL patient T cells) | frequency of CD27-CD28- cells (DLBCL patient T cells) | T-cell proliferation in MLR [5] | T-cell proliferation in subsets lacking CD27 or CD28 [6] | other results
1 | CC[C@H](Nc1ncnc2[nH]cnc12)c1nc2cccc(F)c2c(=O)n1-c1ccccc1 [idelalisib, (S)-2-(1-(9H-purin-6-ylamino)propyl)-5-fluoro-3-phenylquinazolin-4(3H)-one] | enhances their therapeutic efficacy | increased | increased | significantly expanded | increases | decreasing | – | – | adverse signs and symptoms in treated patients ([1]; human, in vivo): auto immune-like signs and symptoms including colitis and rash; anti-cancer responses after drug treatment has stopped ([1]; human, in vivo): continued anti-cancer responses; T-cell activation in patients with CLL ([1]; idelalisib treatment): increased T-cell activation; fraction of senescent T cells that lacked both CD27 and CD28 ([3]; 10 nM idelalisib): 16.1%; proportion of T cells co-expressing CD27 and CD28 ([3]; idelalisib 1 uM or 100 nM, compared to control cultures with no added drug): significantly increased; number of viable T cells obtained (DLBCL patient T cells; [7]): increases; proportion of naive and central memory cells (DLBCL patient T cells; [7]): increases
2 | VIP: (SEQ ID NO: 12) HSDAVFTDNYTRLRKQMAVKKYLNSILN, endogenous polypeptide | – | – | – | – | – | – | decreased Luciferase T-cell proliferation in a dose-dependent manner | – | half-life in vivo [4]: less than two
3 | VIPhyb: VIP receptor antagonist, hybrid peptide of neurotensin and VIP, (SEQ ID NO: 1) KPRRPYTDNYTRLRKQMAVKKYLNSILN | enhances their therapeutic efficacy | increased | increased | significantly expanded | increases | decreasing | augmented in vitro T-cell proliferation; also recorded: augmented T cell proliferation in vitro; also recorded: increased T-cell proliferation | augmented T-cell proliferation | PD-1 expression ([6]; 3 uM VIPhyb, compared with control cultures without VIP antagonist): decreased levels of PD-1 expression; proportion of Ki67 positive T-cells ([6]; daily addition of 3 uM VIPhyb, total T-cells of anergic lymphoma patient, anti-CD3/anti-CD28 beads, 90% without VIPhyb): 100%; fraction of senescent T cells that lacked both CD27 and CD28 ([3]; 3 uM VIPhyb): 35.7%; effect on the suppression of T-cell proliferation by VIP ([5]; MLR with VIP and VIPhyb): mitigated the inhibitory effect of the native VIP peptide on T-cell proliferation; also recorded: reversed the suppressive effect of VIP in MLR
4 | mast cell chymase: an enzyme that degrades endogenous VIP; human CMA1 (protein, UniProt P23946 22-247, looked up) Chymase: IIGGTECKPHSRPYMAYLEIVTSNGPSKFCGGFLIRRNFVLTAAHCAGRSITVTLGAHNITEEEDTWQKLEVIKQFRHPKYNTSTLHHDIMLLKLKEKASLTLAVGTLPFPSQFNFVPPGRMCRVAGWGRTGVLKPGSDTLQEVKLRLMDPQACSHFRDFDHNLQLCVGNPRKTKSAFKGDSGGPLLCAGVAQGIVSYGRSDAKPPAVFTRISHYRPWINQILQAN | – | – | – | significantly expanded | – | – | – | – | fraction of senescent T cells that lacked both CD27 and CD28 ([3]; 1 μg per ml mast cell chymase): 37.4%
5 | IL 12: IL-12 added to T cell cultures with anti-CD3/CD28 beads (protein, UniProt P29459 23-219; P29460 23-328, looked up) Interleukin-12 subunit alpha: RNLPVATPDPGMFPCLHHSQNLLRAVSNMLQKARQTLEFYPCTSEEIDHEDITKDKTSTVEACLPLELTKNESCLNSRETSFITNGSCLASRKTSFMMALCLSSIYEDLKMYQVEFKTMNAKLLMDPKRQIFLDQNMLAVIDELMQALNFNSETVPQKSSLEEPDFYKTKIKLCILLHAFRIRAVTIDRVMSYLNAS Interleukin-12 subunit beta: IWELKKDVYVVELDWYPDAPGEMVVLTCDTPEEDGITWTLDQSSEVLGSGKTLTIQVKEFGDAGQYTCHKGGEVLSHSLLLLHKKEDGIWSTDILKDQKEPKNKTFLRCEAKNYSGRFTCWWLTTISTDLTFSVKSSRGSSDPQGVTCGAATLSAERVRGDNKEYEYSVECQEDSACPAAEESLPIEVMVDAVHKLKYENYTSSFFIRDIIKPDPPKNLQLKPLKNSRQVEVSWEYPDTWSTPHSYFSLTFCVQVQGKSKREKKDRVFTDKTSATVICRKNASISVRAQDRYYSSSWSEWASVPCS | – | – | – | – | – | – | – | significant impact in increasing the proliferation fraction of T-cells that were CD28 negative but not those that were CD27 negative | –
